Assay results reported in paper PMC11383786, “Parallel evolution of methyltransferases leads to vobasine biosynthesis in Tabernaemontana elegans and Catharanthus roseus” (Frontiers in Plant Science, 2024).

Tested on: T1, TePeNMT (TeMT1)
T1 construct: N-terminal His-tag, codon optimized synthetic gene in pET30a(+) NotI/XhoI, E. coli BL21(DE3), Ni-NTA purified; no chloroplast transit peptide predicted
Experiment: Michaelis-Menten kinetics, LC-MS/MS detection of product vobasine
Format: biochemical, Tabernaemontana elegans
Conditions: 50 μM S-adenosylmethionine (saturating), 20 mM Tris pH 7.5, 30 °C, 5 min
Source text: Michaelis-Menten kinetics, LC-MS/MS detection of product vobasine on TePeNMT (TeMT1)

Km: 1.91 µM
SMILES: C/C=C1/CN[C@H]2Cc3c([nH]c4ccccc34)C(=O)C[C@@H]1[C@@H]2C(=O)OC [perivine]
